# What was measured:
# [1] = target: T1, Bcl-2 (Homo sapiens, UniProt P10415); assay: AlphaLISA competitive binding assay, Bcl-2; design: purchased Sigma-Aldrich; conditions: His-tagged Bcl-2, biotin-tagged BIM peptide, 24 h incubation
# Method: (§1) Purified recombinant His-tagged Bcl-xL/Bcl-2/Bcl-w (Sigma-Aldrich, St. Louis, MO) were incubated with increasing concentrations of compound #55 and a fixed concentration of biotin-tagged Bad (for Bcl-xL) or BIM peptides (for Bcl-2 and Bcl-w) (AnaSpec, Fremont, CA) to a final volume of 40 µL in 96-well PCR plate. After 24 h incubation, 5 μL 6×His-Acceptor beads (final concentration 20 μg/mL) (PerkinElmer, Houston, TX) were added to each well and incubated for 1 h. Thereafter, 5 μL streptavidin-donor beads were added (final concentration 20 μg/mL) (PerkinElmer) to each well and incubated for 0.5 h. At the end of the incubation period, 17 μL of each sample was transferred in adjacent wells of 384-well proxy plate. The plate was scanned using Alpha program on Biotek's Synergy Neo2 multi-mode plate reader. The inhibition constant (Ki) was calculated using non-linear regression, one site, competitive binding, Fit Ki function on GraphPad Prism based on experimentally determined Kd for each protein/peptide pair.
# [2] = tested on: RS4; 11 cells; assay: MTS cell viability assay in RS4; 11 cells; format: cell-based, human
# Method: (§6) Cell viability was measured by tetrazolium-based MTS assay and IC50 was calculated as a percentage of vehicle-treated cells.
# [3] = target: T2, Bcl-xL (Homo sapiens, UniProt Q07817); assay: Western blot Bcl-XL degradation in additional cancer cells; format: cell-based; design: endogenous in cells; conditions: RS4; 11, EJM, H929 (16 h), H146 (48 h); fixed concentration
# Method: (§2) MOLT4 cells and human platelets were incubated with increasing concentrations of compound #55 for 16 h. The cells were harvested and lysed in RIPA lysis buffer supplemented with protease and phosphatase inhibitor cocktails. An equal amount of protein (20 μg/lane) was resolved on a pre-cast 4-20% SDS-PAGE gel. Proteins were subsequently transferred to NOVEX PVDF membranes by electrophoresis. The membranes were blocked in blocking buffer (5% non-fat dry milk in TBS-T), and incubated with primary antibodies (at optimized concentrations) overnight at 4° C. After three washings in TBS-T, the membranes were incubated with an appropriate HRP-conjugated secondary antibody for 1 h at room temperature. After extensive washing for three times, the proteins of interest were detected with ECL western blotting detection reagents and recorded with autoradiography (Pierce Biotech, Rockford, IL, USA). […] The relative band intensity was measured using ImageJ software and normalized to b-actin. The DC50 (concentration with 50% degradation) was calculated using GraphPad Prism. […] Bcl-2 levels were not detected, whereas Mcl-1 was unaffected with compound #55 treatment in MOLT4 cells (FIGS. 1B and 1D). […]
# (§3) Tumor cells were incubated with a fixed concentration of compound #55 for 16 h (RS4; 11, EJM, H929) or 48 h (H146) and Bcl-2/Bcl-xL/Mcl-1 levels were determined using Western blot analysis as described above.
# [4] = target: T3, Mcl-1 (Homo sapiens, UniProt Q07820); assay: Western blot Mcl-1 levels in MOLT4 cells; format: cell-based; design: endogenous in cells; conditions: 16 h
# Method: MOLT4 cells and human platelets were incubated with increasing concentrations of compound #55 for 16 h. The cells were harvested and lysed in RIPA lysis buffer supplemented with protease and phosphatase inhibitor cocktails. An equal amount of protein (20 μg/lane) was resolved on a pre-cast 4-20% SDS-PAGE gel. Proteins were subsequently transferred to NOVEX PVDF membranes by electrophoresis. The membranes were blocked in blocking buffer (5% non-fat dry milk in TBS-T), and incubated with primary antibodies (at optimized concentrations) overnight at 4° C. After three washings in TBS-T, the membranes were incubated with an appropriate HRP-conjugated secondary antibody for 1 h at room temperature. After extensive washing for three times, the proteins of interest were detected with ECL western blotting detection reagents and recorded with autoradiography (Pierce Biotech, Rockford, IL, USA). The primary antibodies for Bcl-xL (Cat #2762), Bcl-2 (Cat #2872), Mcl-1 (Cat #5453) and β-actin (Cat #4970) were purchased from Cell Signaling technology. The relative band intensity was measured using ImageJ software and normalized to b-actin. The DC50 (concentration with 50% degradation) was calculated using GraphPad Prism. […] Bcl-2 levels were not detected, whereas Mcl-1 was unaffected with compound #55 treatment in MOLT4 cells (FIGS. 1B and 1D). […]
# [5] = target: T2, Bcl-xL; assay: Western blot Bcl-xL degradation assay in MOLT4 cells; format: cell-based; design: endogenous in cells; host or cells: MOLT4
# Method: (§4) MOLT4 cells and human platelets were incubated with increasing concentrations of compound #55 for 16 h. The cells were harvested and lysed in RIPA lysis buffer supplemented with protease and phosphatase inhibitor cocktails. An equal amount of protein (20 μg/lane) was resolved on a pre-cast 4-20% SDS-PAGE gel. Proteins were subsequently transferred to NOVEX PVDF membranes by electrophoresis. The membranes were blocked in blocking buffer (5% non-fat dry milk in TBS-T), and incubated with primary antibodies (at optimized concentrations) overnight at 4° C. After three washings in TBS-T, the membranes were incubated with an appropriate HRP-conjugated secondary antibody for 1 h at room temperature. After extensive washing for three times, the proteins of interest were detected with ECL western blotting detection reagents and recorded with autoradiography (Pierce Biotech, Rockford, IL, USA). The primary antibodies for Bcl-xL (Cat #2762), Bcl-2 (Cat #2872), Mcl-1 (Cat #5453) and β-actin (Cat #4970) were purchased from Cell Signaling technology. The relative band intensity was measured using ImageJ software and normalized to b-actin. The DC50 (concentration with 50% degradation) was calculated using GraphPad Prism. […] Bcl-2 levels were not detected, whereas Mcl-1 was unaffected with compound #55 treatment in MOLT4 cells (FIGS. 1B and 1D). […] The DC50 and Dmax values of compound #55 in platelets were >3 μM and 26%, respectively (FIG. 1E).
# MOLT4 cells were incubated with a fixed concentration of compound #55 for increasing time points. In another experiment, cells were treated for 16 hours followed by drug withdrawal and further cultured for increasing time-points before harvesting them for Bcl-xL degradation assays. Bcl-xL levels were measured using Western blot analysis as described above. The relative band intensity was measured using ImageJ software and normalized to equal loading control β-actin.
# Cell viability was measured by MTS assay.
# Third, we sought to confirm that compound #55-induced Bcl-xL degradation depends on proteasomal activity.
# Fourth, we sought to confirm that Bcl-xL degardation by compound #55 requires the binding with Bcl-xL protein.
# [6] = tested on: H929 cells; assay: MTS cell viability assay in H929 cells; format: cell-based, human; conditions: Mcl-1-dependent H929 cells, 72 h
# Method: as §6
# [7] = tested on: EJM cells; assay: MTS cell viability assay in EJM cells; format: cell-based, human
# Method: (§5) Multiple Myeloma EJM cells were incubated either with 250 nM S63845 (Mcl-1 inhibitor) or 125 nM compound #55 or the combination of both for 72 h. The cell viability was measured using MTS assay. The combination indices (CI) were calculated using formula CI=AB/(A×B); where AB is the percent cell inhibition by the combination whereas A and B are the percent cell inhibition by individual agents. CI<1 indicates synergism, whereas CI<0.3 indicates strong synergism.
# [8] = target: T4, Bcl-w (Homo sapiens, UniProt Q92843); assay: AlphaLISA competitive binding assay, Bcl-w; conditions: His-tagged Bcl-w, biotin-tagged BIM peptide, 24 h incubation
# T4 construct: purchased Sigma-Aldrich
# T4 sequence (Q92843 1-193): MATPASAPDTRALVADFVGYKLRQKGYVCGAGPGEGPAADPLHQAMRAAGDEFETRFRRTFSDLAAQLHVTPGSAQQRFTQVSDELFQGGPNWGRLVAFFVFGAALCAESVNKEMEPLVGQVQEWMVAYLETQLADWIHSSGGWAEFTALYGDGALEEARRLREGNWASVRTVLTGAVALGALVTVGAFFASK
# Method: as §1
# [9] = target: T2, Bcl-xL; assay: Western blot Bcl-xL degradation assay in human platelets; format: cell-based; design: endogenous in cells; host or cells: MOLT4; conditions: 16 h
# Method: as §4
# [10] = target: T3, Mcl-1; assay: Western blot Mcl-1 levels in additional cancer cells; format: cell-based; design: endogenous in cells; host or cells: RS4;11, EJM, H929, H146; conditions: RS4; 11, EJM, H929 (16 h), H146 (48 h); fixed concentration
# Method: as §2, §3
# [11] = tested on: platelets; assay: Platelet toxicity; format: cell-based; conditions: up to 3 μM; data not shown
# [12] = target: T1, Bcl-2; assay: Western blot Bcl-2 levels in additional cancer cells; format: cell-based; design: endogenous in cells; host or cells: RS4;11, EJM, H929, H146; conditions: RS4; 11, EJM, H929 (16 h), H146 (48 h); fixed concentration
# Method: as §2, §3
# [13] = tested on: H146 cells; assay: MTS cell viability assay in H146 cells; format: cell-based, human
# Method: as §5, with “Small cell lung cancer H146” for “Multiple Myeloma EJM”, “500” for “250”, “ABT-199 (Bcl-2” for “S63845 (Mcl-1”
# [14] = target: T2, Bcl-xL; assay: AlphaLISA competitive binding assay, Bcl-xL; design: purchased Sigma-Aldrich; conditions: His-tagged Bcl-xL, biotin-tagged Bad peptide, 24 h incubation
# Method: as §1
# [15] = tested on: MOLT4 cells; assay: MTS cell viability assay in MOLT4 cells
# Method: as §6
# [16] = tested on: caspase-3 and poly (ADP) ribose polymerase (PARP); assay: Western blot of cleaved caspase-3 and PARP in MOLT4 cells; format: cell-based, human; conditions: 0.1 and 0.3 μM, 24 h
# Method: At the end of incubation, cells were harvested for western blot analysis of cleaved and full length caspase-3 and poly (ADP) ribose polymerase (PARP). The antibodies for cleaved caspase-3 (Cat #9661), full length caspase-3 (Cat #9662), and PARP (Cat #9532) were purchased from Cell Signaling Technology. A single Anti-PARP antibody used can detect both cleaved and full length PARP.
# T2 sequence (Q07817 whole entry): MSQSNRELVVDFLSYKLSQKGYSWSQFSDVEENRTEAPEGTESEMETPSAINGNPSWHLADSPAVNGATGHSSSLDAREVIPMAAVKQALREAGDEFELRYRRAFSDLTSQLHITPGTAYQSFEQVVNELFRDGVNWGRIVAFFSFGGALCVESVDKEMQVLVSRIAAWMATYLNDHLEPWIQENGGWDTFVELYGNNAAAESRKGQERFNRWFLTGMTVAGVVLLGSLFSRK
# T1 sequence (P10415 whole entry): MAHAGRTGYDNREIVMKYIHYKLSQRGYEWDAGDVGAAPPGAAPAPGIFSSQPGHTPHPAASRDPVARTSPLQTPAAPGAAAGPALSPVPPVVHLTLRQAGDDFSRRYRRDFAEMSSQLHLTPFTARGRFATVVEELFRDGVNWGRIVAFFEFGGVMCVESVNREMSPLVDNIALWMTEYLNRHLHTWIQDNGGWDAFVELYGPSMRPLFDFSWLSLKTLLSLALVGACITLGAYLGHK
# T3 sequence (Q07820 whole entry): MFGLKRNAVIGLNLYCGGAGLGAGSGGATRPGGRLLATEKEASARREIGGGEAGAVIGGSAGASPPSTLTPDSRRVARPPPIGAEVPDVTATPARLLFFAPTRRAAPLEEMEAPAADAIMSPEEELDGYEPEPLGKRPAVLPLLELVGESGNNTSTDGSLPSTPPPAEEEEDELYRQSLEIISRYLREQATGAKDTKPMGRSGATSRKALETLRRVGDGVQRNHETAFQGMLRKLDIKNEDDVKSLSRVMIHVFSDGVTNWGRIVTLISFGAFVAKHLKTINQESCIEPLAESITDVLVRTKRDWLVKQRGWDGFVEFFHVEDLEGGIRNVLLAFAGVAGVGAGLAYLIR
compound,measurement,setting,value
"(2S,4R)-1-((S)-2-(7-(4-((R)-3-((4-(N-(4-(4-((4′- Chloro-4,4-dimethyl- 3,4,5,6-tetrahydro-[1,1′-biphenyl]-2- yl)methyl)piperazin-1-yl)benzoyl)sultamoyl)-2- ((trifluoromethyl)sulfonyl)phenyl)amino)-4- (phenylthio)butyl)piperazin-1-yl)-7- oxoheptanamido)-3,3-dimethylbutanoyl)-4-hydroxy- N-((S)-1-(4-(4-methylthiazol-5- yl)phenyl)ethyl)pyrrolidine-2-carboxamide [compound #55]",Ki,[1],1.82 nM
same,IC50,"[2]; Bcl-2-dependent RS4, 72 h, MTS, read-out: IC50 loss of cell viability",230 nM
same,effect on cell viability compared with ABT-263,"[2]; RS4, 72 h",less prominent than ABT-263
same,Bcl-XL degradation,[3],capable of degrading Bcl-XL in all these cell lines
same,Mcl-1 levels,[4],unaffected
same,Bcl-xL degradation in ABT263-pretreated cells,"[5]; 1 μM ABT-263 pretreatment, 0.1 and 1 μM, 16 h",did not induce Bcl-xL degradation
same,Bcl-xL degradation in MG132-pretreated cells,"[5]; 1 μM MG132 pretreatment, 0.1 and 1 μM, 6 h",did not induce Bcl-xL degradation
same,Dmax (maximum degradation) of Bcl-xL,[5]; 16 h,90.8%
same,DC50,"[5]; 16 h, read-out: DC50 (concentration with 50% degradation) of Bcl-xL",63 nM
same,Bcl-xL degradation in VHL-L-pretreated cells,"[5]; VHL-L pretreatment, then 16 h",did not induce Bcl-xL degradation
same,time at which significant Bcl-xL degradation starts,"[5]; fixed concentration, increasing time points",2 h
same,Bcl-xL degrading activity after drug withdrawal,[5]; treated 16 hours then drug withdrawal,able to sustain its Bcl-xL degrading activity for prolonged period after drug withdrawal
same,cellular activity,[6],did not show any significant cellular activity
same,loss of cell viability in combination with S63845,"[7]; EJM cells, 125 nM compound #55 + 250 nM S63845, 72 h",synergistically induce the loss of cell viability
same,cellular activity,"[7]; Mcl-1-dependent EJM cells, 72 h",did not show any significant cellular activity
same,Ki,[8],301 nM
same,Bcl-xL levels,[9],did not affect Bcl-xL levels
same,DC50,[9],> 3000 nM
same,Dmax of Bcl-xL,[9],26%
same,effect on Mcl-1 levels,[10],sparing Bcl-2 and Mcl-1
same,platelet toxicity,[11],did not induce any significant platelet toxicity
same,effect on Bcl-2 levels,[12],sparing Bcl-2 and Mcl-1
same,IC50,"[13]; Bcl-2/Bcl-xL-dependent H146 cells, 72 h, MTS, read-out: IC50 loss of cell viability",160 nM
same,loss of cell viability in combination with ABT-199,"[13]; H146 cells, 125 nM compound #55 + 500 nM ABT-199, 72 h, MTS",synergistically induce the loss of cell viability
same,effect on cell viability compared with ABT-263,"[13]; H146 cells, 72 h",less prominent than ABT-263
same,Ki,[14],12.8 nM
same,cell killing in the presence of VHL-L,"[15]; MOLT4 cells pretreated with 1 and 2 μM VHL-L for 1 h, then 72 h",abrogated
same,IC50,"[15]; read-out: IC50 cell viability, Bcl-XL-dependent MOLT4 cells, 72 h, MTS",52 nM
same,cleavage of caspase-3 and PARP,[16],induced cleavage of caspase-3 and PARP
same,cleavage of caspase-3 and PARP compared with ABT263,[16],more pronounced than ABT263
"CC1(C)CCC(c2ccc(Cl)cc2)=C(CN2CCN(c3ccc(C(=O)NS(=O)(=O)c4ccc(N[C@H](CCN5CCOCC5)CSc5ccccc5)c(S(=O)(=O)C(F)(F)F)c4)cc3)CC2)C1 [ABT-263, navitoclax, reference compound]",Ki,[8],33.5 nM
same,cell killing in the presence of VHL-L,"[15]; MOLT4 cells, with 1 μM and 2 μM VHL-L, 72 h",could not further induce the cell killing in the presence of VHL-L
